SMILES strings stand for the structures.

One experiment deals with Rhizoctonia solani. Briefly: Mycelial inhibition, Rhizoctonia. It is filed as cell-based. The conditions noted are these: 24 hours, relative to standard DIFOLATAN, read-out: Mycelial inhibition, % Standard, Rhizoc. The protocol:
(§1) A number of the compounds of the present invention were evaluated for in-vitro fungicidal effectiveness by means of a mycelial inhibition test. This test is designed to measure the fungitoxic activity of fungicidal chemicals in terms of their degree of inhibition of mycelium growth. Each compound to be tested was dissolved in acetone to 500 ppm concentration. Paper strips were infused with the particular mycelium growth by covering the paper with a potato dextrose broth culture of mycelial suspension. The papers were then placed on potato dextrose agar plates and sprayed by means of a microsprayer with the fungicidal solution. The treated paper strips were incubated at 25° C. and the data is taken after 24 hours. Fungicidal activities are measured by a zone of inhibited mycelial growth from the center of the paper strip. The effectiveness of the compounds tested for fungicidal activity is reported in Table IIa for those compounds which were effective in inhibiting mycelial growth. The activity is reported in terms of [formula]

The next experiment relates to Phytophthora infestans. Briefly: whole plant or invertebrate. It is filed as in vivo. The conditions noted are these: in Solanum lycopersicum, read-out: % Control Tom. L. Bl.
The test system of experiment [1] is Pigweed (Amaranthus retraflexus). In words: Pre-emergent herbicidal test, Pigweed. The conditions noted are these: 504 h, pre-emergence, 33 micrograms/cm^2, 3 weeks. It counts as in vivo. The protocol: (§2) An acetone solution of the test compound was prepared by mixing 750 mg of the compound, 220 mg of a nonionic surfactant and 25 ml of acetone. This solution was added to approximately 125 ml of water containing 156 mg of surfactant.
(§3) Seeds of the test vegetation were planted in a pot of […] and the test solution was sprayed uniformly onto the soil surface at a dose of 33 micrograms/cm^2. The pot was watered and placed in a greenhouse. […] At the end of this period, the herbicidal effectiveness of the compound was rated based on the physiological observations. A 0-to-100 scale was used, 0 representing no phytotoxicity, 100 representing complete kill.

Experiment [2] relates to Lambsquarter (Chenopodium album). In words: Post-emergent herbicidal test, Lambsquarter. It is filed as in vivo. The note with it: 504 h, post-emergence, 33 micrograms/cm^2, 3 weeks, read-out: Herbicidal Activity Post-Emergence % Control L'Qtr.
A further experiment deals with Fusarium Moniliforme. Briefly: Mycelial inhibition, Fusarium. It counts as cell-based. The conditions noted are these: Fusarium verticillioides, 24 hours, relative to standard DIFOLATAN
The method, then:
as §1

For experiment [3], the system named is Crabgrass (Digitaria sanguinalis). Briefly: Pre-emergent herbicidal test, Crabgrass. It is filed as in vivo. The note with it: 504 h, pre-emergence, 33 micrograms/cm^2, 3 weeks. The protocol:
as §2, §3

A further experiment relates to Aspergillus Niger. In words: Mycelial inhibition, Aspergillus. It is filed as cell-based. The note with it: 24 hours, relative to standard DIFOLATAN, read-out: Mycelial inhibition, % Standard, Asper. The method, then: as §1
The next experiment relates to Septoria apii. It counts as in vivo. The note with it: 250 ppm; celery (Utah) plants.
For experiment [4], the system named is Lambsquarter (Chenopodium album). Briefly: Pre-emergent herbicidal test, Lambsquarter. It counts as in vivo. The conditions noted are these: 504 h, pre-emergence, 33 micrograms/cm^2, 3 weeks, read-out: Herbicidal Activity Pre-Emergence % Control L'Qtr. The protocol: as §2, §3
For experiment [5], the system named is Mustard (Brassica arvensis). In words: Pre-emergent herbicidal test, Mustard. It is filed as in vivo. The note with it: 504 h, pre-emergence, 33 micrograms/cm^2, 3 weeks. The method, then:
as §2, §3

Another experiment relates to Botrytis Cineria. Briefly: Mycelial inhibition, Botrytis. It is filed as cell-based. The conditions noted are these: 24 hours, relative to standard DIFOLATAN
The method, then:
as §1

In experiment [6] the test system is Mustard (Brassica arvensis). In words: Post-emergent herbicidal test, Mustard. The note with it: 504 h, post-emergence, 33 micrograms/cm^2, 3 weeks. It counts as in vivo.
For experiment [7], the system named is Pigweed (Amaranthus retraflexus). Briefly: Post-emergent herbicidal test, Pigweed. It counts as in vivo. The conditions noted are these: 504 h, post-emergence, 33 micrograms/cm^2, 3 weeks.
For the next experiment, the system named is Pythium Ultimum. In words: Mycelial inhibition, Pythium. The conditions noted are these: Globisporangium ultimum, 24 hours, relative to standard DIFOLATAN
It counts as cell-based. The method, then: as §1

The subject of experiment [8] is Crabgrass (Digitaria sanguinalis). Briefly: Post-emergent herbicidal test, Crabgrass. It is filed as in vivo. The conditions noted are these: 504 h, post-emergence, 33 micrograms/cm^2, 3 weeks.
The test system of experiment [9] is Watergrass (Ethinochloa crusgalli). In words: Post-emergent herbicidal test, Watergrass. It counts as in vivo. The conditions noted are these: 504 h; post-emergence; 33 micrograms/cm^2; 3 weeks.
The subject of a further experiment is Plasmopara viticola. In words: Grape Downy Mildew control, detached grape leaves. It counts as in vivo. The conditions noted are these: in Vitis vinifera, Vitis vinifera Emperor detached leaves, read-out: % Control Grape D.M. The protocol: The compounds of the invention were tested for the control of the grape downy mildew organism Plasmopara viticola. Detached leaves, between 70 and 85 mm in diameter, of 7-week old Vitis vinifera cultivar Emperor grape seedlings were used as hosts. The leaves were sprayed with a 250 ppm solution of the test compound in acetone. The sprayed leaves were dried, inoculated with a spore suspension of the organism, placed in a humid environmental chamber and incubated at 66° to 68° F. and about 100% relative humidity. After incubation for two days, the plants were then held in a greenhouse seven to nine days; then the amount of disease control was determined. The percent disease control provided by a given gest compound was based on the percent disease reduction relative to untreated check plants.

The test system of experiment [10] is Soybean. In words: Pre-emergent herbicidal test, Soybean. It is filed as in vivo. The note with it: Glycine max, 504 h; pre-emergence; 33 micrograms/cm^2; 3 weeks; read-out: Herbicidal Activity Pre-Emergence % Control Soybean. The protocol: as §2, §3
Experiment [11] deals with Soybean. Briefly: Post-emergent herbicidal test, Soybean. It is filed as in vivo. The conditions noted are these: Glycine max, 504 h; post-emergence; 33 micrograms/cm^2; 3 weeks; read-out: Herbicidal Activity Post-Emergence % Control Soybean.
A further experiment has as its system Elodea canadensis. In words: Aquatic weeds control, Elodea. It is filed as in vivo. The conditions noted are these: 7 to 10 days, read-out: Algicidal Activity % Control Elodea. The method, then:
(§4) Representative compounds of the invention were tested as aquatic herbicides and algicides by the following method. The weed test species were Lemna minor, Elodea canadensis and the algae used was Spirulina maxima.
(§5) An acetone solution of the test compound and a small amount of an alkylarylpolyoxyethylene glycol-containing surfactant was prepared. This solution was mixed with a nutrient solution in quantity sufficient to give a concentration of 2 ppm. Eight oz. plastic cups were filled with 150 ml of this solution. A sample of the test, Lemna and Elodea, was added together to each cup. Forty ml of Spirulina culture with the 2 ppm treatment was placed in 11/2 oz plastic cups (#4 glass vials used after June 9, 1980). The containers were then placed in an illuminated environment maintained at a temperature of about 20° C. for incubation. The containers were observed periodically for growth (as compared to an untreated check). The effectiveness of the test compound was determined based on a final observation of growth after 7 to 10 days. The results of the test on a 0-to-100 basis--0 indicating no effectiveness and 100 indicating complete effectiveness--are reported in Table IV.

The subject of a further experiment is Spirulina maxima. Briefly: Algae control, Spirulina. The conditions noted are these: Limnospira maxima, 7 to 10 days, read-out: Algicidal Activity % Control Spirulina. It counts as cell-based. The method, then:
as §4, §5

The subject of a further experiment is Lemna minor. In words: Aquatic weeds control, Lemna. It counts as in vivo. The note with it: 7 to 10 days, read-out: Algicidal Activity % Control Lemna. The protocol: as §4, §5
The test system of experiment [12] is Watergrass (Ethinochloa crusgalli). In words: Pre-emergent herbicidal test, Watergrass. The note with it: 504 h; pre-emergence; 33 micrograms/cm^2; 3 weeks. It is filed as in vivo. The method, then:
as §2, §3

Regarding `CC1(C)N=C(SCSC#N)SC1=CCl` [Compound 3], the inhibition at 500 ppm in the experiment with Rhizoctonia solani worked out at 55%; in the experiment on Fusarium Moniliforme it was 115%; with Aspergillus Niger, 69%; with Botrytis Cineria, 64%; in the experiment with Pythium Ultimum, 40%. The pest or weed control at 250 ppm in the experiment with Phytophthora infestans is 21%; in the experiment with Plasmopara viticola, 79%. Moreover, the pest or weed control at 33 µg/cm2 in experiment [1] was determined as 35%; in [2], 0%; in experiment [3] it was 0%; in experiment [4], 25%; in experiment [5], 15%; in experiment [6], 0%. In addition, the pest or weed control at 33 µg/cm2 in [7], in [8], in [9] and in experiment [12] was 0% each time. Further, in the experiment with Septoria apii, the “% Control Cel. L. Bl.” value is recorded as 15%. The plant injury at 33 µg/cm2 in the experiment with Soybean [10] and in the experiment on Soybean [11] was 0% throughout. Besides, the activity at 2 ppm was 90% in the experiment with Elodea canadensis, 40% in the experiment on Spirulina maxima and 40% in the experiment on Lemna minor.
As for `CC1(C)N=C(SCSC#N)SC1=CBr` [Compound 4], the inhibition at 500 ppm in the experiment with Rhizoctonia solani was 92%; in the experiment on Fusarium Moniliforme, 77%; in the experiment with Aspergillus Niger, 63%; in the experiment on Botrytis Cineria, 36%; in the experiment on Pythium Ultimum, 14%. Moreover, the pest or weed control at 250 ppm was 0% with Phytophthora infestans and 100% in the experiment with Plasmopara viticola. For the same compound, the pest or weed control at 33 µg/cm2 in experiment [1], in experiment [2], in experiment [3], in [4], in experiment [5] and in experiment [6] was 0% in each case. Besides, the pest or weed control at 33 µg/cm2 in experiment [7], in [8], in [9] and in experiment [12] was 0% throughout. In addition, the “% Control Cel. L. Bl.” value in the experiment on Septoria apii was 23%. The plant injury at 33 µg/cm2 in the experiment on Soybean [10] and in the experiment on Soybean [11] was 0% in each case. Besides, the figures for the activity at 2 ppm in the experiment with Elodea canadensis, with Spirulina maxima and with Lemna minor were 80%, 30% and 35%, respectively.
